# From patent publication US20150259294A1, “METHOD OF PLANT GROWTH PROMOTION USING CARBOXAMIDE DERIVATIVES” (BAYER CROPSCIENCE AG, priority 2012, published 2015)
# Legend:
# wheat leave discs = test: Chlorophyll preservation bioassay in wheat leave discs; conditions: for Chlorophyll content (%): wheat leave discs at 4 dpt vs control at 0 dpt; for colour of leave discs at the end of the experiment: wheat and barley leave discs, 3 or 4 dpt in the dark
# Procedure: (§1) To confirm the greening effect of compounds of formula (I) according to the invention observed in field trials, a simple bioassay was set up using wheat and barley. Discs of 1 cm of diameter were cut within leaves collected from 4 weeks old plants and deep at room temperature in water for 1 hour to allow ethylene produced after wound injury to dissipate. Control samples were produced dipping leave discs for 15 min in a solution of 5% DMSO-10% acetone-0.005% tween80 (bioassay formulation), immediately frozen (control 0 day post treatment-dpt) or deposited on Whatmann filter paper soaked by the bioassay formulation, in Petri dishes, […] Leaves discs treated with test compound were processed in the same way. In this case, leave discs were deep for 15 minutes in test compound solution and left to incubate on filter paper soaked with the corresponding test solution. Compounds of formula (I) according to the invention were tested in EC100 formulation unless otherwise specified; Other SDHI fungicides (Fluxapyroxad, Isopyrazam and Hambra) were tested in their respective field formulations.
# (§2) Leave discs were frozen in liquid nitrogen and ground prior to chlorophyll extraction with 1 mL of an acetone-water (80-20 vol/vol) solution and chlorophyll concentration evaluation at 663 nm. Percentages of chlorophyll content in 3 or 4 dpt controls and corresponding treated samples were reported to the chlorophyll content measured in 0 dpt controls.
# [1] = system: winter wheat variety Dekan; test: Foliar application field trial Laacherhof: yield of winter wheat; type: in vivo; conditions: 50 g a.i./ha, sprayed threefold at BBCH 31, 39 and 69, 100EC formulation with adjuvant; for Grain Yield (dt/ha): untreated control 86.25
# Procedure: (§3) The field trial in winter wheat was conducted in the experimental station “Laacherhof” in Germany in spring/summer 2012.
# (§4) Seeds of the winter wheat variety “Dekan” were planted on Oct. 17, 2011. Fertilization, herbicide- and plant growth regulator applications were carried out according to the local agricultural practice. Additionally, a cover spray with “Pronto Plus” was carried out at BBCH-growth stage 51 in order to keep brown rust (Puccinia triticina) out of the field trial (trial under pathogen-free conditions). The trial was conducted with 3 replicates and the replicates 2 and 3 were randomized. The plot size was 8.8 m^2.
# (§5) Compounds A5 (N-(5-chloro-2-isopropylbenzyl)-N-cyclopropyl-3-(difluoromethyl)-5-fluoro-1-methyl-1H-pyrazole-4-carboxamide), A7 (N-cyclopropyl-3-(difluoromethyl)-5-fluoro-N-(5-fluoro-2-isopropylbenzyl)-1-methyl-1H-pyrazole-4-carboxamide), A12 (N-cyclopropyl-3-(difluoromethyl)-5-fluoro-N-(2-isopropyl-5-methylbenzyl)-1-methyl-1H-pyrazole-4-carboxamide) and A10 (N-cyclopropyl-3-(difluoromethyl)-5-fluoro-N-(2-fluoro-6-isopropylbenzyl)-1-methyl-1H-pyrazole-4-carboxamide) were sprayed threefold at BBCH-growth stages 31, 39 and 69 with an use rate of 50 g a.i./ha. All compounds were applied as 100EC formulation adding an adjuvant.
# The winter wheat was harvested on Aug. 3, 2012.
# corn = test: Foliar application field trial USA (FA12NARS4CUJX1): green foliage and yield in corn; type: in vivo; conditions: for Greening Effect (%): 100 EC, green foliage of corn at EC 79, untreated control 43; for Grain Yield (dt/ha): untreated control 39.5
# Procedure: The field trial FA12NARS4CUJX1 was conducted in the USA (IA, 50046 Cambridge) in spring 2012.
# The crop was planted on April 2012. Fertilization and herbicide applications were carried out according to the local agricultural practice.
# The trial was conducted with 4 replicates. Plot size was 80 m^2 and there were four replicates.
# Compound A5 was applied as a 100 EC formulation with rates of 20 and 50 g a.i./ha twice in the growing season at BBCH-growth stages EC 15 and 61.
# In this trial there was no significant leaf disease severity assessed (Kabatiella zeae pest severity below 5%). It can be considered as almost disease free.
# The trial was harvested on September 2012.
# [2] = system: winter wheat variety Akteur; test: Foliar application field trial Langfoerden (FA12DSD559XJE1): yield in winter wheat; type: in vivo; conditions: for Grain Yield (dt/ha): 100 EC, disease free, untreated control 62
# Procedure: The field trial FA12DSD559XJE1 was conducted in the experimental station “Langfoerden” in Germany in spring 2012.
# Winter wheat, variety “Akteur”, was planted on November 2011. Fertilization, herbicide- and plant growth regulator applications were carried out according to the local agricultural practice.
# The trial was conducted with 4 replicates. Plot size was 16 m^2 and there were four replicates.
# Compound A5 was applied as a 100 EC formulation with rates of 37 and 75 g a.i./ha twice in the growing season at BBCH-growth stages EC 33 and 61.
# In this trial there was no significant disease severity assessed. It can be considered as disease free.
# (§6) The trial was harvested on August 2012.
# barley leave discs = test: Chlorophyll preservation bioassay in barley leave discs; conditions: barley leaves at 3 dpt vs control at 0 dpt
# Procedure: as §1, §2
# soybean cultivar BRS 245 = test: Soybean seed treatment field trial: development and yield; type: in vivo; conditions: for Plant Height (cm)/%: 050 SC, 42 days after planting, untreated control 33 cm = 100%; for Weight Root (g)/% / Weight Dry Plant (g)/%: 49 days after planting; for Weight Root (g)/%: untreated control 10 g = 100%; for Weight Dry Plant (g)/%: untreated control 46 g = 100%; for Grain Yield (dt)/%: untreated control 28 dt = 100%; for Weight of 1000 Grains (g)/%: untreated control 125 g = 100%
# Procedure: Seeds of the Brazilian soybean cultivar BRS 245 were treated with compound A5: […] The product was applied as 050 SC with rates of 25 and 100 g a.i./dt. The field trial was set up in an experimental station close to Paulinia, S. P., in Brazil, in February 2012. […] Fertilization, herbicide- and insecticide applications were carried out according to the local agricultural practice. 42 days after planting plant height, 49 days after planting the dry weight of both entire green plants and the roots were measured. This trial was done under almost disease free conditions (“Asian Soybean Rust” Phakopsora pachyrhizi arrived about month after planting with a very low severity).
# [3] = system: winter wheat variety Dekan; test: Foliar application field trial Höfchen: green leaves and yield in winter wheat; type: in vivo; conditions: for Greening Effect (%): 100 EC, assessed at EC 85, 38 days after second application, untreated control 0; for Grain Yield (dt/ha): untreated control 85
# Procedure: The field trial was conducted in the experimental station “Höfchen” in Germany in spring 2012. Winter wheat, variety “Dekan”, was planted on October 2011. Fertilization, herbicide- and plant growth regulator applications were carried out according to the local agricultural practice.
# The trial was conducted with 4 replicates. Plot size was 12 m^2 and there were four replicates.
# Compound A5 was applied as a 100 EC formulation with rates of 37 and 75 g a.i./ha twice in the growing season at BBCH-growth stages EC 33 and 55.
# The effect on the green foliage was assessed on July 2012, 38 days after the second application, at growth stage EC 85, (see table 6).
# as §6
# [4] = system: winter wheat variety Dekan; test: Foliar application field trial Laacherhof: greening effect in winter wheat; type: in vivo; conditions: 50 g a.i./ha, sprayed threefold at BBCH 31, 39 and 69; percentage of the color green; untreated control 21.7
# Procedure: as §3, §4, §5
# The greening effect of the single treatments was evaluated on Jul. 6, 2012.
# [5] = formula (I) compounds in EC100 formulation, other SDHI in field formulations
# [6] = 20 g a.i./ha twice (EC 15 and 61)
# [7] = 50 g a.i./ha twice (EC 15 and 61)
# [8] = 37 g a.i./ha twice (EC 33 and 61)
# [9] = 75 g a.i./ha twice (EC 33 and 61)
# [10] = 37 g a.i./ha twice (EC 33 and 55)
# [11] = 75 g a.i./ha twice (EC 33 and 55)
compound,measurement,setting,value
"CC(C)c1ccccc1CN(C(=O)c1c(C(F)F)nn(C)c1F)C1CC1 [Compound A1, N-cyclopropyl-3-(difluoromethyl)-5-fluoro-N-(2-isopropylbenzyl)-1-methyl-1H-pyrazole-4-carboxamide]",Chlorophyll content (%),wheat leave discs; [5],87%
"CC(C)c1ccc(Cl)cc1CN(C(=O)c1c(C(F)F)nn(C)c1F)C1CC1 [Compound A5, N-(5-chloro-2-isopropylbenzyl)-N-cyclopropyl-3-(difluoromethyl)-5-fluoro-1-methyl-1H-pyrazole-4-carboxamide]",Grain Yield (% of Untreated Control),[1],120%
same,Grain Yield (dt/ha),[1],103.1 dt/ha
same,Grain Yield (% of Untreated Control),corn; [6],123%
same,Greening Effect (%),corn; [6],59%
same,Grain Yield (dt/ha),corn; [6],48.5 dt/ha
same,Grain Yield (% of Untreated Control),corn; [7],131%
same,Greening Effect (%),corn; [7],63%
same,Grain Yield (dt/ha),corn; [7],51.8 dt/ha
same,effect on maintenance of green leaves in corn (in words),corn; foliar sprays,clearly has an effect on the maintenance of the green leaves shortly before harvest
same,Chlorophyll content (%),wheat leave discs; [5],78%
same,Grain Yield (% of Untreated Control),[2]; [8],117%
same,Grain Yield (dt/ha),[2]; [8],72 dt/ha
same,Grain Yield (% of Untreated Control),[2]; [9],124%
same,Grain Yield (dt/ha),[2]; [9],76 dt/ha
same,effect on grain yield in winter wheat (in words),"[2]; foliar sprays, practically disease-free",clearly has an effect on grain yield
same,Chlorophyll content (%),barley leave discs; [5],55%
same,Plant Height (cm)/%,soybean cultivar BRS 245; seed treatment 25 g a.i./dt,105%
same,Weight Root (g)/%,soybean cultivar BRS 245; seed treatment 25 g a.i./dt,117%
same,Weight Dry Plant (g)/%,soybean cultivar BRS 245; seed treatment 25 g a.i./dt,107%
same,Grain Yield (dt)/%,soybean cultivar BRS 245; seed treatment 25 g a.i./dt,112%
same,Weight of 1000 Grains (g)/%,soybean cultivar BRS 245; seed treatment 25 g a.i./dt,103%
same,Plant Height (cm)/%,soybean cultivar BRS 245; seed treatment 100 g a.i./dt,105%
same,Weight Root (g)/%,soybean cultivar BRS 245; seed treatment 100 g a.i./dt,103%
same,Weight Dry Plant (g)/%,soybean cultivar BRS 245; seed treatment 100 g a.i./dt,108%
same,Grain Yield (dt)/%,soybean cultivar BRS 245; seed treatment 100 g a.i./dt,111%
same,Weight of 1000 Grains (g)/%,soybean cultivar BRS 245; seed treatment 100 g a.i./dt,105%
same,impact on development and yield of soybean (in words),"soybean cultivar BRS 245; seed treatment, almost disease free conditions",clearly stimulates the physiological development of soybean plants and boosts both grain yield and the grain weight
same,Grain Yield (% of Untreated Control),[3]; [10],128%
same,Greening Effect (%),[3]; [10],54%
same,Grain Yield (dt/ha),[3]; [10],109 dt/ha
same,Grain Yield (% of Untreated Control),[3]; [11],136%
same,Greening Effect (%),[3]; [11],86%
same,Grain Yield (dt/ha),[3]; [11],115 dt/ha
same,effect on maintenance of green leaves in winter wheat (in words),[3]; foliar sprays,clearly has an effect on the maintenance of the green leaves shortly before harvest
same,Greening Effect (%),[4],26.7%
"CC(C)c1ccc(F)cc1CN(C(=O)c1c(C(F)F)nn(C)c1F)C1CC1 [Compound A7, N-cyclopropyl-3-(difluoromethyl)-5-fluoro-N-(5-fluoro-2-isopropylbenzyl)-1-methyl-1H-pyrazole-4-carboxamide]",Grain Yield (% of Untreated Control),[1],115%
same,Grain Yield (dt/ha),[1],99.4 dt/ha
same,Chlorophyll content (%),wheat leave discs; tested in EC50 formulation,83%
same,Chlorophyll content (%),barley leave discs; tested in EC50 formulation,77%
same,Greening Effect (%),[4],36.7%
"CC(C)c1cccc(F)c1CN(C(=O)c1c(C(F)F)nn(C)c1F)C1CC1 [Compound A10, N-cyclopropyl-3-(difluoromethyl)-5-fluoro-N-(2-fluoro-6-isopropylbenzyl)-1-methyl-1H-pyrazole-4-carboxamide]",Grain Yield (% of Untreated Control),[1],116%
same,Grain Yield (dt/ha),[1],99.9 dt/ha
same,Chlorophyll content (%),barley leave discs; [5],60%
same,Greening Effect (%),[4],50.0%
"Cc1ccc(C(C)C)c(CN(C(=O)c2c(C(F)F)nn(C)c2F)C2CC2)c1 [Compound A12, N-cyclopropyl-3-(difluoromethyl)-5-fluoro-N-(2-isopropyl-5-methylbenzyl)-1-methyl-1H-pyrazole-4-carboxamide]",Grain Yield (% of Untreated Control),[1],110%
same,Grain Yield (dt/ha),[1],94.9 dt/ha
same,Chlorophyll content (%),wheat leave discs; [5],88%
same,Chlorophyll content (%),barley leave discs; [5],72%
same,Greening Effect (%),[4],53.3%
"Cc1ccc(C(C)(C)C)c(CN(C(=O)c2c(C(F)F)nn(C)c2F)C2CC2)c1 [Compound A14, N-(2-tert-butyl-5-methylbenzyl)-N-cyclopropyl-3-(difluoromethyl)-5-fluoro-1-methyl-1H-pyrazole-4-carboxamide]",Chlorophyll content (%),barley leave discs; [5],77%
"Cn1cc(C(=O)Nc2ccccc2-c2cc(F)c(F)c(F)c2)c(C(F)F)n1 [Fluxapyroxad, reference compound]",colour of leave discs at the end of the experiment,wheat leave discs,discolored
same,Chlorophyll content (%),wheat leave discs; [5],51%
same,Chlorophyll content (%),barley leave discs; [5],28%
"CC(C)C1C2CCC1c1c(NC(=O)c3cn(C)nc3C(F)F)cccc12 (stereo not drawn) [Isopyrazam, reference compound]",colour of leave discs at the end of the experiment,wheat leave discs,discolored
same,Chlorophyll content (%),wheat leave discs; [5],49%
same,Chlorophyll content (%),barley leave discs; [5],32%
